Experimental data taken from US20160318844A1, “PROSTACYCLIN COMPOUNDS, COMPOSITIONS AND METHODS OF USE THEREOF” (Insmed Incorporated, priority 2015, published 2016).
Where two headings read alike, the source gives them in different places.

Experiments:
[1] = Treprostinil alkyl ester conversion to treprostinil in monkey lung tissue homogenate; format: in vitro ADME; details: 37° C.
Experimental: (§1) Here, data were calculated based on fit of exponential increase to the maximum (experiments performed in duplicate). The results of this study are provided below in Table 2A and FIG. 37. […] In this experiment, treprostinil alkyl esters were incubated for 4 hours at a final concentration of 200 nM in 1 mL of tissue homogenate prepared in water and normalized to 10 mg/mL of protein.
(§2) C12-TR was incubated for 4 hours at a final concentration of 200 nM in 1 mL of tissue homogenate prepared in water and normalized to 10 mg/mL of protein. Both FIG. 37 experiments (eft and right graphs) were performed in duplicate and the lines represent nonlinear exponential regression assuming 1 phase decay. Table 2A. Rate of treprostinil alkyl ester conversion in the presence of rat, dog or monkey lung tissue homogenate.

[2] = Treprostinil alkyl ester conversion to treprostinil in dog lung tissue homogenate; format: in vitro ADME; details: 37° C.
Experimental: as §1, §2

beagle dogs = test: Clinical signs in dogs after inhalation; details: targeted dose of 18 μg/kg
Experimental: Dosimetry was performed in propofol-anesthetized dogs in which nebulized drugs were introduced into a mixing chamber interposed on the inspiratory limb of a canine respirator. Technical trials were performed before each experiment to measure the concentration of drug (μg/L) delivered for each breath. The inhaled drug dose (μg/kg) was calculated using the formula: Inhaled Drug Dose (μg/kg)=Drug Conc. (μg/L)×Minute Ventilation (L/min.)×Time (min.)/Body Weight (kg). […] Clinical signs were monitored over this 72 hr. period.
Dosimetry was performed in propofol-anesthetized, artificially ventilated dogs in which nebulized drugs were introduced into a mixing chamber interposed on the inspiratory limb of the respirator. Technical trials were performed before each experiment measuring the concentration of drug (μg/L) per breath, minute ventilation and time required to achieve a targeted pulmonary dose. […] Clinical signs (cough, rapid shallow breathing, emesis and pale gums) were also monitored.

EP2 prostanoid receptor = target: T1, EP2 prostanoid receptor (Homo sapiens, UniProt P43116); test: GloSensor cAMP assay in CHO-K1 cells co-transfected with the EP2 receptor; format: cell-based
T1 construct: host or cells: CHO-K1
T1 sequence (P43116 whole entry): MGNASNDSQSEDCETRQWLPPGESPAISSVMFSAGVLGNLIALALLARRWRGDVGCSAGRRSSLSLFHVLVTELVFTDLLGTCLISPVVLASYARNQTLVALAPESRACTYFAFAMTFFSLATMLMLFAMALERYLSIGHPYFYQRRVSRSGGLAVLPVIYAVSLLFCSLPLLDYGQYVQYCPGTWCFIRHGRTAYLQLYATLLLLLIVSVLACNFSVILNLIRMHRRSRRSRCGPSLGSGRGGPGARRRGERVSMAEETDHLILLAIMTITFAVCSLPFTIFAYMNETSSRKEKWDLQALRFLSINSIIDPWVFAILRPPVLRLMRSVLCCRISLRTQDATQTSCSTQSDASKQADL
Excerpt: cAMP is a second messenger involved in signal transduction of G-protein coupled receptors (GPCRs) acting through Gα-s and Gα-i proteins. Because the treprostinil receptor is a GPCR, the assay provides an indication of whether the respective prostacyclin compound (or metabolite thereof) binds its receptor and activates the GPCR cell signaling cascade. The GloSensorTM assay harnesses a genetically modified form of firefly luciferase into which a cAMP-binding protein moiety has been inserted. Upon binding of cAMP, a conformational change is induced leading to increased light output. The EP2 prostanoid receptor was cotransfected with the GioSensorm plasmid (Promega) into CHO-K cells as follows. CHO-K cells were harvested when the monoloayer was at 50-90% confluence. First, cells were washed with 5 mL PBS. […] The media was aspirated, and the cell pellet was resuspended in 10 mL of growth media. Cell number was determined using a hemacytometer. […] For small scale transfections of up to 20 wells, the pGLoSensor-22F cAMP plasmid (Promega, Cat #: E2301) (2 apg): […] Cat #: […] P2271) ratio was diluted to a final concentration of 12.6 ng/μL (total plasmid) in Opti-MEM I reduced-serum medium (Life Technologies, Cat #: 1985062). Next, 6 μL of FuGENE HD transfection reagent (Promega, Cat #: E2311) was added to 160 μL of diluted plasmid and mixed carefully by gentle pipetting. The complex was incubated at room temperature for 0 to 10 minutes, and then 8 μL of the complex was added per well of a 96 well white assay plate (Costar, Cat #: 3917) and gently mixed without disturbing the cell monolayer. […] Following incubation, cells were treated and analyzed. For larger scale transfections, the aforementioned steps were scaled up accordingly, and cells were frozen following the last incubation. In order to prepare frozen transfected CHO-K cells, the media was aspirated from culture flasks and cells were rinsed with 5 mL PBS. […] Cell number was determined using a hemacytometer. The media was aspirated, and the cell pellet was resuspended in freezing media (Millipore, cat #: S-002-SF) at 2.5×10^4 cells/vial. Transfected cells were incubated overnight at -80° C. before transfer to liquid nitrogen for long term storage. […] SH30071.03)). […] In preparation for cAMP measurement, the cells were equilibrated with the GloSensor cAMP reagent prior to treatment. For equilibration, the medium was carefully removed from the individual well. Next, 100 μL of equilibration medium ([…] of Glosensor Reagent stock solution (Promega, Cat #: E291), 10% FBS (Hydone, Cat #: SH30071.03) and 88% CO2 independent medium (Life Technologies, Cat #: 18045088)) was added per well of the 96-well plate, and added to the side of each well. The plate was then incubated for 2 hours at room temperature. A first pre-read measurement was taken using a microplate reader (MicroLumat Plus). Plates were incubated for an additional 10 minutes at room temperature, followed by a second pre-read measurement. […] Following treatment, each plate was read every 5 minutes for the duration of the assay using a microplate reader (MicroLumat Plus). In order to determine the fold change in cAMP relative to the control, the transfection efficiency was first determined by dividing the second pre-read measurement by the average of the corresponding pre-read measurements. Next, the normalized relative light units (RLUs) of the samples were determined by dividing the plate read measurement by the transfection efficiency. The fold change in cAMP relative to the control was then determined by dividing the normalized RLU of the samples by the normalized RLU of the control. The cAMP assay was validated using free treprostinil. […] Luminescence was then measured at room temperature. […] Nebulizer Aeroneb Pro (Aerogen) was used to nebulize treprostinil derivative compositions. Desired volume of the formulation (usually 3 mL) was loaded to the mesh head of the nebulizer. […]

physchem = details: organic solvent or mixture, thermodynamic from solid
Experimental: Selected treprostinil derivatives were evaluated for the use in a metered dose inhaler (MDI).
5 mg of each treprostinil compound was added in a glass bottle. Specific amount of ethanol was added by weight. An MDI valve was crimped to each bottle, and HFA propellant added through the valve to the total volume of 5 mL. Compounds were allowed to dissolve for 24 hours at room temperature. The formulations were assessed visually for solubility. The goal was to estimate the minimum ethanol concentration required to solubilize each compound in propellant.
Soluble samples presented as clear and colorless solutions. […] Non-soluble samples had white precipitate or crystals formed. Ethanol was added as a solubility aid.

[3] = 4.5 hr incubation time, read-out: EC50 (μM) 4.5 hr
[4] = 6.0 hr incubation time, read-out: EC50 (μM) 6.0 hr
[5] = 8.0 hr incubation time, read-out: EC50 (μM) 8.0 hr
[6] = EC50 (μM) 0.5 hr, 0.5 hr incubation time
[7] = EC50 (μM) 1.0 hr, 1.0 hr incubation time
[8] = EC50 (μM) 2.0 hr, 2.0 hr incubation time
[9] = EC50 (μM) 3.0 hr, 3.0 hr incubation time
[10] = EC50 (μM) 4.0 hr, 4.0 hr incubation time
[11] = EC50 (μM) 5.0 hr, 5.0 hr incubation time
[12] = EC50 (μM) 7.0 hr, 7.0 hr incubation time

Row | Rate of treprostinil alkyl ester conversion [1] | Rate of treprostinil alkyl ester conversion [2] | EC50 (EP2 prostanoid receptor; [3]) [µM] | EC50 (EP2 prostanoid receptor; [4]) [µM] | EC50 (EP2 prostanoid receptor; [5]) [µM] | EC50 (EP2 prostanoid receptor; [6]) [µM] | EC50 (EP2 prostanoid receptor; [7]) [µM] | EC50 (EP2 prostanoid receptor; [8]) [µM] | EC50 (EP2 prostanoid receptor; [9]) [µM] | EC50 (EP2 prostanoid receptor; [10]) [µM] | EC50 (EP2 prostanoid receptor; [11]) [µM] | EC50 (EP2 prostanoid receptor; [12]) [µM] | solubility at 24 h (physchem; Solubility in HFA-134a with added ethanol) [µg/mL] | solubility at 24 h (physchem; Solubility in HFA-227 with added ethanol) [µg/mL] | Compound | adverse clinical signs (beagle dogs)
1 | 0.6 nmOL/h * g of protein | 2.2 nmOL/h * g of protein | 3.17 | 3.25 | 2.9 | 4.98 | 5.35 | 4.54 | 4.07 | 3.13 | 2.94 | 3.17 | > 1000 | > 1000 | CCCCCCCCCCCCOC(=O)COc1cccc2c1C[C@H]1C[C@@H](O)[C@H](CC[C@@H](O)CCCCC)[C@H]1C2 [Compound C12-TR, dodecyl-treprostinil] | Adverse clinical signs were seen
2 | 17.3 nmOL/h * g of protein | 49.8 nmOL/h * g of protein | 1.41 | 1.4 | 1.09 | 3.69 | 3.39 | 1.69 | 1.42 | 1.53 | 1.4 | 1.34 |  |  | CCCCCCCCOC(=O)COc1cccc2c1C[C@H]1C[C@@H](O)[C@H](CC[C@@H](O)CCCCC)[C@H]1C2 [Compound C8-TR, treprostinil octyl ester] | 
